In brackets after ≈: the same amount, converted by molar mass. Activity calls are given as the source filed them. No rule for the calls is given here.
What was measured:
[1] = system: Mycobacterium tuberculosis; experiment: Antimycobacterial activity against Mycobacterium tuberculosis Erdman infected in BALB/c mouse assessed as reduction of bacterial load at 200 mg/kg, po qd for 5 days per week administered 60 days after infection measured after 85 days post infection; format: functional, organism-based; parameters: dose 200 mg/kg
[2] = system: Mycobacterium tuberculosis; experiment: Antimycobacterial activity against Mycobacterium tuberculosis H37Rv ATCC 27294 in GAS medium after 1 week by microplate alamar blue assay; format: functional; conditions: H37Rv ATCC 27294, 168 h
[3] = system: Mycobacterium tuberculosis; experiment: Antimycobacterial activity against Mycobacterium tuberculosis H37Rv ATCC 27294 in GAST medium after 1 week by microplate alamar blue assay; format: functional; conditions: H37Rv ATCC 27294, 168 h

Row | Structure (SMILES) | Activity [1] | MIC [2] | MIC [3]
1 | CC(C)Oc1ccc(-c2nc(C(=O)OCc3ccccc3)co2)cc1 | inactive | 1.95 µM (≈ 0.658 µg/mL) | 3.21 µM (≈ 1.08 µg/mL)
2 | O=C(OCc1ccccc1)[C@@H]1COC(c2cccc(Cl)c2OCc2ccccc2)=N1 | inactive | 6.3 µM (≈ 2.66 µg/mL) | 34 µM (≈ 14.3 µg/mL)
3 | COC(=O)[C@@H]1COC(c2ccccc2OCc2ccccc2)=N1 | inactive | 118 µM (≈ 36.7 µg/mL) | > 128 µM
4 | O=C(OCc1ccccc1)[C@@H]1COC(c2cccc(Br)c2)=N1 | inactive | 24.2 µM (≈ 8.72 µg/mL) | 52.5 µM (≈ 18.9 µg/mL)
5 | COc1ccc(-c2nc(C(=O)OCc3ccccc3)c(C)o2)cc1 | inactive | 47.4 µM (≈ 15.3 µg/mL) | 15.8 µM (≈ 5.11 µg/mL)
6 | O=C(OCc1ccccc1)c1coc(-c2ccccc2P(=O)(c2ccccc2)c2ccccc2)n1 | inactive | 61.8 µM (≈ 29.6 µg/mL) | 61.5 µM (≈ 29.5 µg/mL)
7 | CCCOc1ccc(-c2nc(C(=O)OCc3ccccc3)co2)cc1 | inactive | 3.48 µM (≈ 1.17 µg/mL) | 1.94 µM (≈ 0.655 µg/mL)
8 | O=C(OCc1ccccc1)[C@@H]1COC(c2cccnc2Oc2ccccc2)=N1 | inactive | 58.8 µM (≈ 22 µg/mL) | > 128 µM
9 | O=C(OCc1ccccc1)c1coc(-c2cccnc2Sc2ccccc2)n1 | inactive | 8 µM (≈ 3.11 µg/mL) | > 128 µM
10 | O=C(OCc1ccccc1)[C@@H]1COC(c2ccc(F)cc2[N+](=O)[O-])=N1 | inactive | 30.7 µM (≈ 10.6 µg/mL) | 40.4 µM (≈ 13.9 µg/mL)
11 | COc1ccc(CNC(=O)c2coc(-c3cccc(Cl)c3)n2)cc1OC | inactive | 118 µM (≈ 44 µg/mL) | 48.1 µM (≈ 17.9 µg/mL)
12 | COc1cccc(C2=N[C@H](C(=O)OCc3ccccc3)CO2)c1 | inactive | 24.8 µM (≈ 7.72 µg/mL) | 42.5 µM (≈ 13.2 µg/mL)
13 | COC(=O)[C@@H]1COC(c2ccc([N+](=O)[O-])cc2)=N1 | inactive | > 128 µM | > 128 µM
14 | O=C(OCc1ccccc1)[C@@H]1COC(c2cncc(-c3ccccc3)c2)=N1 | inactive | 12.5 µM (≈ 4.48 µg/mL) | 29.8 µM (≈ 10.7 µg/mL)
15 | O=C(O)[C@@H]1COC(c2ccccc2O)=N1 | inactive | > 128 µM | > 128 µM
16 | COC(=O)[C@@H]1COC(c2ccccc2O)=N1 | inactive | > 128 µM | > 128 µM
17 | O=C(OCc1ccccc1)[C@@H]1COC(c2cccnc2Sc2ccccc2)=N1 | inactive | 17.8 µM (≈ 6.95 µg/mL) | 13.4 µM (≈ 5.23 µg/mL)
18 | O=C(OCc1ccccc1)c1coc(-c2ccc([N+](=O)[O-])cc2OCc2ccccc2)n1 | inactive | > 128 µM | > 128 µM

Row | Structure (SMILES) | Activity [1] | MIC [2] | MIC [3]
19 | O=C(O)[C@@H]1COC(c2ccccc2)=N1 | inactive | > 128 µM | > 128 µM
20 | C[C@@H]1OC(c2ccccc2OCc2ccccc2)=N[C@@H]1C(=O)OCc1ccccc1 | inactive | > 128 µM | > 128 µM
21 | N#Cc1cccc(-c2nc(C(=O)OCc3ccccc3)co2)c1 | inactive | 25.2 µM (≈ 7.67 µg/mL) | 60.5 µM (≈ 18.4 µg/mL)
22 | COc1ccc(C2=N[C@H](C(=O)OCc3ccccc3)[C@H](C)O2)cc1 | inactive | 54.1 µM (≈ 17.6 µg/mL) | 37.8 µM (≈ 12.3 µg/mL)
23 | CCOc1ccc(C2=N[C@H](C(=O)OCc3ccccc3)CO2)cc1 | inactive | 60.6 µM (≈ 19.7 µg/mL) | 30.5 µM (≈ 9.92 µg/mL)
24 | CC(C)Oc1ccc(C2=N[C@H](C(=O)OCc3ccccc3)CO2)cc1 | inactive | 3.2 µM (≈ 1.09 µg/mL) | 14.9 µM (≈ 5.06 µg/mL)
25 | COC(=O)[C@H]1N=C(c2ccccc2)O[C@H]1C | inactive | > 128 µM | > 128 µM
26 | O=C(OCc1ccccc1)[C@@H]1COC(c2ccc([N+](=O)[O-])cc2OCc2ccccc2)=N1 | inactive | 15.6 µM (≈ 6.75 µg/mL) | 4.86 µM (≈ 2.1 µg/mL)
27 | COc1ccc(CC2=N[C@H](C(=O)OCc3ccccc3)CO2)cc1 | inactive | > 128 µM | > 128 µM
28 | O=C(OCc1ccccc1)c1coc(-c2ccncc2)n1 | inactive | 1.42 µM (≈ 0.398 µg/mL) | 6.1 µM (≈ 1.71 µg/mL)
29 | O=C(OCc1ccccc1)c1coc(-c2cccnc2Oc2ccccc2)n1 | inactive | 6.86 µM (≈ 2.55 µg/mL) | 91.4 µM (≈ 34 µg/mL)
30 | O=C(OCc1ccccc1)[C@@H]1COC(c2cccnc2)=N1 | inactive | 53.3 µM (≈ 15 µg/mL) | 92.9 µM (≈ 26.2 µg/mL)
31 | O=C(OCc1ccccc1)[C@@H]1COC(c2ccc(Cl)c(F)c2)=N1 | inactive | 52 µM (≈ 17.4 µg/mL) | 6.49 µM (≈ 2.17 µg/mL)
32 | Cc1ccc(C2=N[C@H](C(=O)OCc3ccccc3)CO2)cn1 | inactive | 73 µM (≈ 21.6 µg/mL) | 122 µM (≈ 36.2 µg/mL)
33 | COc1ccc(C2=N[C@H](C(=O)OCc3ccccc3)CO2)cc1OC | inactive | 39 µM (≈ 13.3 µg/mL) | 21.6 µM (≈ 7.37 µg/mL)
34 | O=C(OCc1ccccc1)[C@@H]1COC(c2ccccn2)=N1 | inactive | 110 µM (≈ 31.1 µg/mL) | 127 µM (≈ 35.9 µg/mL)
35 | O=C(OCc1ccccc1)c1coc(-c2ccc(OCc3ccccc3)c(F)c2)n1 | inactive | 3.03 µM (≈ 1.22 µg/mL) | 3.86 µM (≈ 1.56 µg/mL)

Reference: ChEMBL document CHEMBL1157845, “Structure-activity relationship of new anti-tuberculosis agents derived from oxazoline and oxazole benzyl esters” (Eur J Med Chem, 2010)
